Experiments:
[1] = Stability of the cocrystal on heating (DSC experiments); type: physicochemical
Procedure: The cocrystal Form VII of the present invention may also be further characterized by DSC (differential scanning calorimetry) analysis as shown in FIG. 15. […] The cocrystal Form VII of the present invention may also be further characterized by having a melting range of about 109-120° C.
The cocrystal Form XVIII of the present invention may also be further characterized by DSC (differential scanning calorimetry) analysis as shown in FIG. 35.
The cocrystal Form XIX of the present invention may also be further characterized by DSC (differential scanning calorimetry) analysis as shown in FIG. 37.
DSC analyses were recorded with a Mettler Toledo DSC2. For cocrystals Forms […], and XI-XIX, the sample was weighed into a 40 μL aluminium crucible with a pinhole lid and was heated from 25 to 300° C. at a rate of 10° C./min, under nitrogen (50 mL/min). For cocrystals Form VII and VIII, the sample was weighed into a 40 μL aluminium crucible with a pinhole lid and was heated from 25 to 150° C. at a rate of 10° C./min, under nitrogen (50 mL/min).

[2] = in tablet
Procedure: (§1) X-ray power Diffraction (XRPD) measurements were performed at ambient conditions on a PANalytical X'Pert PRO θ-θ diffractometer of 240 mm of radius in reflection geometry, equipped with Cu Kα radiation and a PIXcel detector, operated at 45 kV and 40 mA. Each sample was mounted on a zero-background silicon holder and allowed to spin at 0.25 rev/s during the data collection.

[3] = open vial, accelerated stability conditions 40° C. and 75±5% relative humidity
Procedure: as §1
The aim of the study is to evaluate the stability of cocrystal Form I of the present invention.
Cocrystal Form I (55 mg) is stored in an open vial and exposed to accelerated stability conditions (40° C. and 75±5% relative humidity) according to ICH guidelines (Guidance for Industry Q1A(R2) Stability Testing of New Drug Substances and Products—available on the website http://www.ich.org/products/guidelines/quality/quality-single/article/stability-testing-of-new-drug-substances-and-products.html on Aug. 4, 2017).

| SMILES | remained stable after heating up to [1] | integrity of the cocrystal after its formulation (XRPD of the tablet) [2] | stability according to XRPD [3] |
| --- | --- | --- | --- |
| C=C(C)[C@@H]1CCC(C)=C[C@H]1c1c(O)cc(CCC)cc1O [Form XVIII, cocrystal wherein the cannabinoid is CBDV and L-proline] | up to 90 °C |  |  |
| CCCCCc1cc(O)c2c(c1)OC(C)(C)[C@@H]1CCC(C)=C[C@@H]21 [Form VII, cocrystal of (−)-(6aR,10aR)-6,6,9-trimethyl-3-pentyl-6a,7,8,10a-tetrahydro-6H-benzo[c]chromen-I-ol and L-proline] | up to 75 °C | maintained its integrity |  |
| C=C(C)[C@@H]1CCC(C)=C[C@H]1c1c(O)cc(CCC)cc1O [Form XIX, cocrystal wherein the cannabinoid is CBDV and L-carnitine] | up to 110 °C |  |  |
| C=C(C)[C@@H]1CCC(C)=C[C@H]1c1c(O)cc(CCCCC)cc1O [Form I, cocrystal of CBD and L-proline] |  | maintained its integrity | remained stable for at least three weeks |

Source: patent US11993563B2, “Solid compositions of cocrystals of cannabinoids” (priority 2018, dated 2024)
